Experiment [1] relates to mTORC2 activity: phosphorylated AKT Ser473 (pAKT S473) in PC3 cells. Kind of experiment: mTOR target engagement assay, immunofluorescent cell-based, mTORC2 readout. The note with it: rated class, 90 min treatment. Summed up: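 Read-out is immunofluorescence intensity, normalized to DMSO-only wells and fitted to a sigmoidal Hill equation for IC50. The mTORC1 arm probes phospho-4E-BP1 Thr37/46 and the mTORC2 arm phospho-AKT Ser473.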

The target of the next experiment is human mTOR enzyme (Homo sapiens, UniProt P42345). Kind of experiment: HTRF mTOR enzyme (kinase) assay. It is filed as biochemical. As to conditions: rated class; 5 μM ATP, 0.2 μM GST-S6K; read-out: hMTOR IC50.
Chain of human mTOR enzyme (P42345 1360-2549 limits assumed): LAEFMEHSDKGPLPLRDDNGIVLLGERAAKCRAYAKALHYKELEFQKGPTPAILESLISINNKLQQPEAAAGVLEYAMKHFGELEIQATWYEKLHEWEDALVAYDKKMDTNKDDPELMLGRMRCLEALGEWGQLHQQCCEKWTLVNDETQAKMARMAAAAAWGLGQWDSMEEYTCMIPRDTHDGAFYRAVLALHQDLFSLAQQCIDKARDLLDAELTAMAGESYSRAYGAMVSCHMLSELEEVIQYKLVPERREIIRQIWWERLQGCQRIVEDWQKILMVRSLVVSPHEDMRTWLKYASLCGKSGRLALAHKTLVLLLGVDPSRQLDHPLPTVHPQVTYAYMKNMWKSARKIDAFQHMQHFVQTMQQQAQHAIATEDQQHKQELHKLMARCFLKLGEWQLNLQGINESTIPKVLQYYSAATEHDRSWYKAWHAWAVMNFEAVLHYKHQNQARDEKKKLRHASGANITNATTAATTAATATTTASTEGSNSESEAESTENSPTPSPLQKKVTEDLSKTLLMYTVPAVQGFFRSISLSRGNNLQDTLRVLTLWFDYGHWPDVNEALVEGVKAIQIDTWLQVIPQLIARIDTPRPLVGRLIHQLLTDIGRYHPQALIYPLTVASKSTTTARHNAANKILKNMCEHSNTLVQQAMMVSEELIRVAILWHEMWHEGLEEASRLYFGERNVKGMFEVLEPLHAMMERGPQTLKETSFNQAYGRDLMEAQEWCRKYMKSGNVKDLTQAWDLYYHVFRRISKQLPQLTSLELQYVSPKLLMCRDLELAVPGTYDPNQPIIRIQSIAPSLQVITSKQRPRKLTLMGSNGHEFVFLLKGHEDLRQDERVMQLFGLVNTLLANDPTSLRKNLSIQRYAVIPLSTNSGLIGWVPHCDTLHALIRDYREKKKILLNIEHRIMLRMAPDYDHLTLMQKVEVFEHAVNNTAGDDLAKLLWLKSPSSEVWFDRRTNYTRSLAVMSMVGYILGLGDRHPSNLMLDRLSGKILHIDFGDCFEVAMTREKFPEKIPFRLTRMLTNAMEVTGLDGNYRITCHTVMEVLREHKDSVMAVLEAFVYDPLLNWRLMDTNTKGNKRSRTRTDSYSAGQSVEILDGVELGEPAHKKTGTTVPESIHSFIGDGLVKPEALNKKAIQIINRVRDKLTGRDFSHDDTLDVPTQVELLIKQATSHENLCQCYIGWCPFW
In experiment [2] the test system is mTORC1 activity: phosphorylated 4E-BP1 Thr37/46 (p4E-BP1 Thr37/46) in PC3 cells. Description: mTOR target engagement assay, immunofluorescent cell-based, mTORC1 readout. The note with it: rated class, 90 min treatment, read-out: P4EBP1 IC50. As to the method: The target engagement of mTOR kinase inhibitors was evaluated using an immunofluorescent cell-based assay. In this assay, inhibition of mTORC1 activity was measured by the reduction in the level of phosphorylated 4E-BP1Thr37/46 (p4E-BP1 Thr37/46), and inhibition of mTORC2 activity was measured by the reduction of phosphorylated AKTSer473 (pAKT S473).
PC3 cells (prostate tumor cell-line that contains a mutation in the tumor suppressor PTEN, that promotes the phosphorylation and activation of AKT and 4E-BP1) were used in the immunofluorescence assay. PC3 cells were seeded on 384 well plates (black clear bottom, Matrix #4332) overnight. PC3 cells were then treated with 40 μl of the serially diluted test compounds (in 5% fetal bovine serum, F12 medium containing 0.25% DMSO) for ninety minutes at 37° C. The test compound solution was removed, and the plates were washed gently two times with 25 μl phosphate buffered saline (PBS). The cells were fixed by adding 25 μl of Prefer reagent (from Anatech LTD, Cat#414, a glyoxal fixative for fixing proteins within a cell) for sixty minutes followed by three washes with PBS. 5% Goat serum in PBS/0.3% Triton was used to block non-specific binding (60 minutes).
The primary antibodies targeting pAKT S473 and p4E-BP1 Thr37/46 were diluted into PBS/0.3% Triton and incubated with the cells overnight at 4° C. The antibodies targeting pAKTS473 (Cat#4085, Cell signaling) and p4E-BP1 Thr37/46 (Cat#2855, Cell signaling) were used at a 1:100 dilution. Plates were washed three times with PBS/0.1% Tween 20 before adding the secondary antibody at a 1:200 dilution. (goat anti-rabbit containing a fluorescent label, Alexa Fluor 488, Cat#A11008, Invitrogen) in PBS/0.3% Triton for 60 minutes.
Finally, the plates were washed three times with PBS/0.1% Tween 20 and the fluorescent intensity was read using an Analyst HT from Molecular Devices. The fluorescent intensity values from the serially diluted compound treatment group were analyzed using the Xlfit 4 program ([…]) (Formula 205: Y=Bottom+(Top-Bottom)/(1+(IC50/X)^Hillslope) to generate the IC50 value. Where Top is the maximum signal without Compound (+DMSO only) and Bottom represents maximum inhibition. Y is the fluorescence at some compound concentration. The control used to determine the fluorescent intensities for 100% pAKT S473 or 100% phosphorylated p4E-BP1 Thr37/46 were measured from untreated wells that contained only DMSO, instead of test compound.

Like-named read-outs stand apart in the source and are kept apart here.

The IC50 is the concentration at which inhibition is half-maximal. `COC[C@]1(C(=O)O)CC[C@H](c2nc3c(-c4ccc(-c5ccccc5)nc4)cnn3c(N)c2C(C)=O)CC1` [Compound 18, (1R,4R)-4-(6-acetyl-7-amino-3-(6-phenylpyridin-3-yl)pyrazolo[1,5-a]pyrimidin-5-yl)-1-(methoxymethyl)-cyclohexane-carboxylic acid]: the IC50 in experiment [1] (Homo sapiens, PC-3, 1.5 h) lay within 1 to 100 nM; on human mTOR enzyme it was 1 to 100 nM; in experiment [2] (Homo sapiens, PC-3, 1.5 h), 100 to 1000 nM.

For `C[C@]1(C(=O)O)CC[C@H](c2nc3c(-c4ccc(-c5ccccc5)nc4)cnn3c(N)c2C#N)CC1` [Compound 25, (1R,4R)-4-(7-amino-6-cyano-3-(6-phenylpyridin-3-yl)pyrazolo[1,5-a]pyrimidin-5-yl)-1-methylcyclohexanecarboxylic acid], the half-maximal inhibitory concentration (IC50) in experiment [1] (Homo sapiens, PC-3, 1.5 h) lay within 100 to 1000 nM; at human mTOR enzyme, 1 to 100 nM; in experiment [2] (Homo sapiens, PC-3, 1.5 h) it was 100 to 1000 nM.

`C[C@]1(C(=O)O)CC[C@@H](c2nc3c(-c4ccc(-c5ccccc5)nc4)cnn3c(N)c2C#N)CC1` [Compound 26, (1S,4S)-4-(7-amino-6-cyano-3-(6-phenylpyridin-3-yl)pyrazolo[1,5-a]pyrimidin-5-yl)-1-methylcyclohexanecarboxylic acid]: the IC50 in experiment [1] fell in the range of 1 to 100 nM; at human mTOR enzyme, 1 to 100 nM; in experiment [2], 100 to 1000 nM.

In the case of `CO[C@]1(C(=O)O)CC[C@H](c2nc3c(-c4ccc(-c5ccccc5)nc4)cnn3c(N)c2Br)CC1` [Compound 28, (1S,4S)-4-(7-amino-6-bromo-3-(6-phenylpyridin-3-yl)pyrazolo[1,5-a]pyrimidin-5-yl)-1-methoxycyclohexanecarboxylic acid], the IC50 fell in the range of 1 to 100 nM in experiment [1] (Homo sapiens, PC-3, 1.5 h); 1 to 100 nM at human mTOR enzyme; 100 to 1000 nM in experiment [2] (Homo sapiens, PC-3, 1.5 h).

Take `CO[C@]1(C(=O)O)CC[C@@H](c2nc3c(-c4ccc(-c5ccccc5)nc4)cnn3c(N)c2Br)CC1` [Compound 29, (1R,4R)-4-(7-amino-6-bromo-3-(6-phenylpyridin-3-yl)pyrazolo[1,5-a]pyrimidin-5-yl)-1-methoxycyclohexane-carboxylic acid]: the IC50 in experiment [1] (Homo sapiens, PC-3, 1.5 h) fell in the range of 100 to 1000 nM; on human mTOR enzyme, 1 to 100 nM; in experiment [2] (Homo sapiens, PC-3, 1.5 h) it was 100 to 1000 nM.

`CO[C@]1(C(=O)O)CC[C@@H](c2nc3c(-c4cnn(-c5ccccc5)c4)cnn3c(N)c2Br)CC1` [Compound 30, (1R,4R)-4-(7-amino-6-bromo-3-(1-phenyl-1H-pyrazol-4-yl)pyrazolo[1,5-a]pyrimidin-5-yl)-1-methoxycyclohexane-carboxylic acid]: the half-inhibitory concentration (IC50) in experiment [1] (Homo sapiens, PC-3, 1.5 h) lay within 100 to 1000 nM; on human mTOR enzyme, 1 to 100 nM; in experiment [2] (Homo sapiens, PC-3, 1.5 h), 100 to 1000 nM.

On to `CO[C@]1(C(=O)O)CC[C@H](c2nc3c(-c4cnn(-c5ccccc5)c4)cnn3c(N)c2Br)CC1` [Compound 31, (1S,4S)-4-(7-amino-6-bromo-3-(1-phenyl-1H-pyrazol-4-yl)pyrazolo[1,5-a]pyrimidin-5-yl)-1-methoxycyclohexane-carboxylic acid], for which the concentration for half-maximal inhibition (IC50) in experiment [1] (Homo sapiens, PC-3, 1.5 h) is 1 to 100 nM; on human mTOR enzyme it was 1 to 100 nM; in experiment [2] (Homo sapiens, PC-3, 1.5 h) it was 100 to 1000 nM.

On to `CO[C@]1(C(=O)O)CC[C@H](c2nc3c(-c4ccc(-c5ccccc5)nc4)cnn3c(N)c2C(C)=O)CC1` [Compound 34, (1S,4S)-4-(6-acetyl-7-amino-3-(6-phenylpyridin-3-yl)pyrazolo[1,5-a]pyrimidin-5-yl)-1-methoxycyclohexanecarboxylic acid], for which the 50% inhibitory concentration (IC50) in experiment [1] (Homo sapiens, PC-3, 1.5 h) was 100 to 1000 nM; at human mTOR enzyme, 1 to 100 nM; in experiment [2] (Homo sapiens, PC-3, 1.5 h), 100 to 1000 nM.

As to `CO[C@]1(C(=O)O)CC[C@@H](c2nc3c(-c4ccc(-c5ccccc5)nc4)cnn3c(N)c2C(C)=O)CC1` [Compound 35, (1R,4R)-4-(6-acetyl-7-amino-3-(6-phenylpyridin-3-yl)pyrazolo[1,5-a]pyrimidin-5-yl)-1-methoxycyclohexane-carboxylic acid], the IC50 in experiment [1] (Homo sapiens, PC-3, 1.5 h) lay in the range of 1 to 100 nM; at human mTOR enzyme it was 1 to 100 nM; in experiment [2] (Homo sapiens, PC-3, 1.5 h), 100 to 1000 nM.

Consider `CO[C@]1(C(=O)O)CC[C@@H](c2nc3c(-c4cnn(-c5ccccc5)c4)cnn3c(N)c2C(C)=O)CC1` [Compound 36, (1R,4R)-4-(6-acetyl-7-amino-3-(1-phenyl-1H-pyrazol-4-yl)pyrazolo[1,5-a]pyrimidin-5-yl)-1-methoxycyclohexane-carboxylic acid], for which the IC50 in experiment [1] (Homo sapiens, PC-3, 1.5 h) is 1 to 100 nM; at human mTOR enzyme, 1 to 100 nM; in experiment [2] (Homo sapiens, PC-3, 1.5 h) it was 100 to 1000 nM.

For `CO[C@]1(C(=O)O)CC[C@H](c2nc3c(-c4cnn(-c5ccccc5)c4)cnn3c(N)c2C(C)=O)CC1` [Compound 37, (1S,4S)-4-(6-acetyl-7-amino-3-(1-phenyl-1H-pyrazol-4-yl)pyrazolo[1,5-a]pyrimidin-5-yl)-1-methoxycyclohexane-carboxylic acid], the IC50 in experiment [1] (Homo sapiens, PC-3, 1.5 h) lay within 1 to 100 nM; at human mTOR enzyme it was 1 to 100 nM; in experiment [2] (Homo sapiens, PC-3, 1.5 h) it was 100 to 1000 nM.

For the compound `COCCO[C@]1(C(=O)O)CC[C@@H](c2nc3c(-c4cnn(-c5ccccc5)c4)cnn3c(N)c2S(C)(=O)=O)CC1` [Compound 40, (1R,4R)-4-(7-amino-6-(methylsulfonyl)-3-(1-phenyl-1H-pyrazol-4-yl)pyrazolo[1,5-a]pyrimidin-5-yl)-1-(2-methoxyethoxy)cyclohexanecarboxylic acid], the half-inhibitory concentration (IC50) in experiment [1] (Homo sapiens, PC-3, 1.5 h) lay in the range of 1 to 100 nM; on human mTOR enzyme, 1 to 100 nM; in experiment [2] (Homo sapiens, PC-3, 1.5 h), 100 to 1000 nM.

`COCCO[C@]1(C(=O)O)CC[C@H](c2nc3c(-c4cnn(-c5ccccc5)c4)cnn3c(N)c2S(C)(=O)=O)CC1` [Compound 41, (1S,4S)-4-(7-amino-6-(methylsulfonyl)-3-(1-phenyl-1H-pyrazol-4-yl)pyrazolo[1,5-a]pyrimidin-5-yl)-1-(2-methoxyethoxy)-cyclohexanecarboxylic acid]: the IC50 in experiment [1] (Homo sapiens, PC-3, 1.5 h) lay within 5000 to 15000 nM; at human mTOR enzyme, 1 to 100 nM; in experiment [2] (Homo sapiens, PC-3, 1.5 h), 5000 to 15000 nM.

Take `COCCO[C@]1(C(=O)O)CC[C@@H](c2nc3c(-c4ccc(-c5ccn(C)n5)nc4)cnn3c(N)c2S(C)(=O)=O)CC1` [Compound 42, (1R,4R)-4-(7-amino-3-(6-(1-methyl-1H-pyrazol-3-yl)pyridin-3-yl)-6-(methylsulfonyl)-pyrazolo[1,5-a]-pyrimidin-5-yl)-1-(2-methoxyethoxy)-cyclohexanecarboxylic acid]: the IC50 in experiment [1] (Homo sapiens, PC-3, 1.5 h) fell in the range of 2000 to 5000 nM; on human mTOR enzyme, 1 to 100 nM; in experiment [2] (Homo sapiens, PC-3, 1.5 h) it was 5000 to 15000 nM.

Turning to `COCCO[C@]1(C(=O)O)CC[C@@H](c2nc3c(-c4cnn(-c5ccc(F)cc5)c4)cnn3c(N)c2S(C)(=O)=O)CC1` [Compound 43, (1R,4R)-4-(7-amino-3-(1-(4-fluorophenyl)-1H-pyrazol-4-yl)-6-(methylsulfonyl)-pyrazolo[1,5-a]-pyrimidin-5-yl)-1-(2-methoxyethoxy)-cyclohexanecarboxylic acid], the half-inhibitory concentration (IC50) in experiment [1] (Homo sapiens, PC-3, 1.5 h) fell in the range of 100 to 1000 nM; on human mTOR enzyme, 1 to 100 nM; in experiment [2] (Homo sapiens, PC-3, 1.5 h) it was 100 to 1000 nM.

Regarding `COCCO[C@]1(C(=O)O)CC[C@@H](c2nc3c(-c4ccc(-c5ccccc5)nc4)cnn3c(N)c2S(C)(=O)=O)CC1` [Compound 44, (1R,4R)-4-(7-amino-6-(methylsulfonyl)-3-(6-phenylpyridin-3-yl)pyrazolo[1,5-a]pyrimidin-5-yl)-1-(2-methoxyethoxy) cyclohexanecarboxylic acid], the IC50 was in the range of 100 to 1000 nM in experiment [1] (Homo sapiens, PC-3, 1.5 h); 1 to 100 nM at human mTOR enzyme; 100 to 1000 nM in experiment [2] (Homo sapiens, PC-3, 1.5 h).

As for `COCCO[C@]1(C(=O)O)CC[C@@H](c2nc3c(-c4cnc(-c5ccccc5)nc4)cnn3c(N)c2S(C)(=O)=O)CC1` [Compound 46, (1R,4R)-4-(7-amino-6-(methylsulfonyl)-3-(2-phenylpyrimidin-5-yl)pyrazolo[1,5-a]pyrimidin-5-yl)-1-(2-methoxyethoxy) cyclohexanecarboxylic acid], the IC50 lay within 5000 to 15000 nM in experiment [1] (Homo sapiens, PC-3, 1.5 h); 1 to 100 nM on human mTOR enzyme; 5000 to 15000 nM in experiment [2] (Homo sapiens, PC-3, 1.5 h).

For `COCCO[C@]1(C(=O)O)CC[C@@H](c2nc3c(-c4ccc(-c5nccs5)nc4)cnn3c(N)c2S(C)(=O)=O)CC1` [Compound 47, (1R,4R)-4-(7-amino-6-(methylsulfonyl)-3-(6-(thiazol-2-yl)pyridin-3-yl)pyrazolo[1,5-a]pyrimidin-5-yl)-1-(2-methoxyethoxy) cyclohexanecarboxylic acid], the IC50 in experiment [1] (Homo sapiens, PC-3, 1.5 h) fell in the range of 2000 to 5000 nM; on human mTOR enzyme, 1 to 100 nM; in experiment [2] (Homo sapiens, PC-3, 1.5 h), 2000 to 5000 nM.

For the origin of these results see patent US8883801B2, “Substituted pyrazolo[1,5-a]pyrimidines as mTOR inhibitors” (Merck Sharp & Dohme Corp., priority 2010, dated 2014).
